From patent US20220119354A1, “DIAMINO-SUBSTITUTED PYRIDINES AND PYRIMIDINES AS HERBICIDES” (FMC Corporation, priority 2019, published 2022)

Legend:
Assay type in all cases: in vivo
[1] = test system: rice (Oryza sativa); experiment: Test B flooded paddy test, rice; details: Oryza sativa, 360 h; Flood, 250 g ai/ha, applied to paddy water, 2-leaf stage, visual evaluation after 13 to 15 d; read-out: Plant response rating, Rice (0 to 100 scale, 0 is no effect, 100 is complete control)
Summary of the method: (§1)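 Growth to two leaves preceded treatment. Flooding to 3 cm above soil surface, then water-applied compound; depth kept constant. Scored visually relative to controls after 13–15 d greenhouse; 100 means full control.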

[2] = test system: pigweed (Amaranthus retroflexus); experiment: Test A preemergence, pigweed; details: 0 to 100 scale, 0 is no effect, 100 is complete control
Summary of the method: (§2)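 Using a solvent/surfactant formulation, test chemicals were sprayed onto freshly seeded soil or onto 2–10 cm seedlings at the one- to two-leaf stage. Visual injury ratings on a 0–100 scale were made about 10 d later in the greenhouse.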

[3] = test system: ducksalad (Heteranthera limosa); experiment: Test B flooded paddy test, ducksalad; details: Heteranthera limosa, 360 h; Flood, 250 g ai/ha, applied to paddy water, 2-leaf stage, visual evaluation after 13 to 15 d; read-out: Plant response rating, Ducksalad (0 to 100 scale, 0 is no effect, 100 is complete control)
Summary of the method: as §1

[4] = test system: ragweed (common ragweed, Ambrosia elatior); experiment: Test A preemergence, ragweed; details: 0 to 100 scale, 0 is no effect, 100 is complete control
Summary of the method: as §2

[5] = test system: foxtail, giant (Setaria faberii); experiment: Test A postemergence, giant foxtail; details: Setaria faberi, post-emergence, 240 h, 0 to 100 scale, 0 no effect, 100 complete control, read-out: Plant response rating, Foxtail, Giant; for pest or weed control at 125 g/ha: 125 g ai/ha; for pest or weed control at 500 g/ha: 500 g ai/ha
Summary of the method: as §2

[6] = test system: barnyardgrass (Echinochloa crus-galli); experiment: Test A postemergence, barnyardgrass; details: Echinochloa crus-galli, post-emergence, 240 h, 0 to 100 scale, 0 no effect, 100 complete control, read-out: Plant response rating, Barnyardgrass; for pest or weed control at 125 g/ha: 125 g ai/ha; for pest or weed control at 500 g/ha: 500 g ai/ha
Summary of the method: as §2

[7] = test system: kochia (Kochia scoparia); experiment: Test A preemergence, kochia; details: 0 to 100 scale, 0 is no effect, 100 is complete control
Summary of the method: as §2

[8] = test system: foxtail, giant (Setaria faberii); experiment: Test A preemergence, giant foxtail; details: 0 to 100 scale, 0 is no effect, 100 is complete control
Summary of the method: as §2

[9] = test system: barnyardgrass (Echinochloa crus-galli); experiment: Test B flooded paddy test, barnyardgrass; details: Echinochloa crus-galli, 360 h; Flood, 250 g ai/ha, applied to paddy water, 2-leaf stage, visual evaluation after 13 to 15 d; read-out: Plant response rating, Barnyardgrass (0 to 100 scale, 0 is no effect, 100 is complete control)
Summary of the method: as §1

[10] = test system: ragweed (common ragweed, Ambrosia elatior); experiment: Test A postemergence, ragweed; details: Ambrosia artemisiifolia, post-emergence, 240 h, 0 to 100 scale, 0 no effect, 100 complete control, read-out: Plant response rating, Ragweed; for pest or weed control at 125 g/ha: 125 g ai/ha; for pest or weed control at 500 g/ha: 500 g ai/ha
Summary of the method: as §2

[11] = test system: sedge, umbrella (small-flower umbrella sedge, Cyperus difformis); experiment: Test B flooded paddy test, umbrella sedge; details: Cyperus difformis, 360 h; Flood, 250 g ai/ha, applied to paddy water, 2-leaf stage, visual evaluation after 13 to 15 d; read-out: Plant response rating, Sedge, Umbrella (0 to 100 scale, 0 is no effect, 100 is complete control)
Summary of the method: as §1

[12] = test system: kochia (Kochia scoparia); experiment: Test A postemergence, kochia; details: Bassia scoparia, post-emergence, 240 h, 0 to 100 scale, 0 no effect, 100 complete control, read-out: Plant response rating, Kochia; for pest or weed control at 125 g/ha: 125 g ai/ha; for pest or weed control at 500 g/ha: 500 g ai/ha
Summary of the method: as §2

[13] = test system: blackgrass (Alopecurus myosuroides); experiment: Test A postemergence, blackgrass; details: Alopecurus myosuroides, post-emergence, 240 h, 0 to 100 scale, 0 no effect, 100 complete control, read-out: Plant response rating, Blackgrass; for pest or weed control at 125 g/ha: 125 g ai/ha; for pest or weed control at 500 g/ha: 500 g ai/ha
Summary of the method: as §2

[14] = test system: galium (catchweed bedstraw, Galium aparine); experiment: Test A postemergence, galium; details: Galium, post-emergence, 240 h, 0 to 100 scale, 0 no effect, 100 complete control, read-out: Plant response rating, Galium; for pest or weed control at 125 g/ha: 125 g ai/ha; for pest or weed control at 500 g/ha: 500 g ai/ha
Summary of the method: as §2

[15] = test system: barnyardgrass (Echinochloa crus-galli); experiment: Test A preemergence, barnyardgrass; details: 0 to 100 scale, 0 is no effect, 100 is complete control
Summary of the method: as §2

[16] = test system: ryegrass, Italian (Lolium multiflorum); experiment: Test A preemergence, Italian ryegrass; details: 0 to 100 scale, 0 is no effect, 100 is complete control
Summary of the method: as §2

[17] = test system: corn (Zea mays); experiment: Test A postemergence, corn; details: Zea mays, post-emergence, 240 h, 0 to 100 scale, 0 no effect, 100 complete control; for Corn plant response rating (crop injury, 0 = no effect, 100 = complete kill) at 125 g/ha: 125 g ai/ha; for Corn plant response rating (crop injury, 0 = no effect, 100 = complete kill) at 500 g/ha: 500 g ai/ha
Summary of the method: as §2

Compound | plant injury at 250 g/ha [1] | Pigweed plant response rating ([2]; 125 g ai/ha) | Pigweed plant response rating ([2]; 500 g ai/ha) | pest or weed control at 250 g/ha [3] | Ragweed plant response rating ([4]; 125 g ai/ha) | Ragweed plant response rating ([4]; 500 g ai/ha) | pest or weed control at 125 g/ha [5] | pest or weed control at 500 g/ha [5] | pest or weed control at 125 g/ha [6] | pest or weed control at 500 g/ha [6] | Kochia plant response rating ([7]; 125 g ai/ha) | Kochia plant response rating ([7]; 500 g ai/ha) | Foxtail, Giant plant response rating ([8]; 125 g ai/ha) | Foxtail, Giant plant response rating ([8]; 500 g ai/ha) | pest or weed control at 250 g/ha [9] | pest or weed control at 125 g/ha [10] | pest or weed control at 500 g/ha [10] | pest or weed control at 250 g/ha [11] | pest or weed control at 125 g/ha [12] | pest or weed control at 500 g/ha [12] | also measured
C[C@@H](Nc1ncc(C(F)(F)F)c(N)n1)c1cc2c(F)cccc2s1 [Compound 61, N2-[(1R)-1-(4-fluorobenzo[b]thien-2-yl)ethyl]-5-(trifluoromethyl)-2,4-pyrimidinediamine] | 0% | 100 | 100 | 50% | 90 | 100 | 90% | 90% | 80% | 100% | 90 | 90 | 100 | 100 | 40% | 60% | 100% | 90% | 80% | 90% | pest or weed control at 125 g/ha [13]: 80%; pest or weed control at 500 g/ha [13]: 70%; pest or weed control at 125 g/ha [14]: 70%; pest or weed control at 500 g/ha [14]: 100%; Barnyardgrass plant response rating ([15]; 125 g ai/ha): 80; Barnyardgrass plant response rating ([15]; 500 g ai/ha): 90; Ryegrass, Italian plant response rating ([16]; 125 g ai/ha): 40; Ryegrass, Italian plant response rating ([16]; 500 g ai/ha): 100; Corn plant response rating (crop injury, 0 = no effect, 100 = complete kill) at 125 g/ha [17]: 10%; Corn plant response rating (crop injury, 0 = no effect, 100 = complete kill) at 500 g/ha [17]: 60%
C[C@@H](Nc1ncc(C(F)(F)F)c(N)n1)c1cc2cccc(F)c2o1 [Compound 71, N2-[(1R)-1-(7-fluoro-2-benzofuranyl)ethyl]-5-(trifluoromethyl)-2,4-pyrimidinediamine] | 0% | 100 | 100 | 0% | 100 | 100 | 60% | 90% | 30% | 100% | 90 | 100 | 90 | 100 | 0% | 80% | 90% | 0% | 90% | 90% | pest or weed control at 125 g/ha [13]: 0%; pest or weed control at 500 g/ha [13]: 50%; pest or weed control at 125 g/ha [14]: 80%; pest or weed control at 500 g/ha [14]: 90%; Barnyardgrass plant response rating ([15]; 125 g ai/ha): 70; Barnyardgrass plant response rating ([15]; 500 g ai/ha): 100; Ryegrass, Italian plant response rating ([16]; 125 g ai/ha): 20; Ryegrass, Italian plant response rating ([16]; 500 g ai/ha): 80; Corn plant response rating (crop injury, 0 = no effect, 100 = complete kill) at 125 g/ha [17]: 0%; Corn plant response rating (crop injury, 0 = no effect, 100 = complete kill) at 500 g/ha [17]: 40%
C[C@@H](Nc1ncc(C(F)(F)F)c(N)n1)c1cc2c(F)cccc2o1 [Compound 73, N2-[(1R)-1-(4-fluoro-2-benzofuranyl)ethyl]-5-(trifluoromethyl)-2,4-pyrimidinediamine] | 10% | 100 | 100 | 98% | 100 | 100 | 70% | 100% | 60% | 100% | 100 | 100 | 100 | 100 | 65% | 90% | 100% | 90% | 90% | 100% | pest or weed control at 125 g/ha [13]: 50%; pest or weed control at 500 g/ha [13]: 80%; pest or weed control at 125 g/ha [14]: 90%; pest or weed control at 500 g/ha [14]: 90%; Barnyardgrass plant response rating ([15]; 125 g ai/ha): 90; Barnyardgrass plant response rating ([15]; 500 g ai/ha): 100; Ryegrass, Italian plant response rating ([16]; 125 g ai/ha): 100; Ryegrass, Italian plant response rating ([16]; 500 g ai/ha): 100; Corn plant response rating (crop injury, 0 = no effect, 100 = complete kill) at 125 g/ha [17]: 30%; Corn plant response rating (crop injury, 0 = no effect, 100 = complete kill) at 500 g/ha [17]: 40%
C[C@@H](Nc1ncc(C(F)(F)F)c(N)n1)c1cc2cccc(F)c2s1 [Compound 75, N2-[(1R)-1-(7-fluorobenzo[b]thien-2-yl)ethyl]-5-(trifluoromethyl)-2,4-pyrimidinediamine] | 0% | 100 | 100 | 95% | 100 | 100 | 60% | 90% | 30% | 100% | 90 | 100 | 90 | 100 | 40% | 70% | 90% | 98% | 80% | 90% | pest or weed control at 125 g/ha [13]: 0%; pest or weed control at 500 g/ha [13]: 30%; pest or weed control at 125 g/ha [14]: 80%; pest or weed control at 500 g/ha [14]: 80%; Barnyardgrass plant response rating ([15]; 125 g ai/ha): 90; Barnyardgrass plant response rating ([15]; 500 g ai/ha): 90; Ryegrass, Italian plant response rating ([16]; 125 g ai/ha): 80; Ryegrass, Italian plant response rating ([16]; 500 g ai/ha): 100; Corn plant response rating (crop injury, 0 = no effect, 100 = complete kill) at 125 g/ha [17]: 0%; Corn plant response rating (crop injury, 0 = no effect, 100 = complete kill) at 500 g/ha [17]: 10%
